Reference: publication PMC4527839, “Synergistic Activity of the Plant Defensin HsAFP1 and Caspofungin against Candida albicans Biofilms and Planktonic Cultures” (PLoS ONE, 2015)
Counter-ions that a name gives are not always drawn. Like-named read-outs stand apart in the source and are kept apart here.

What was measured:
[1] = test system: C. albicans SC5314 biofilms (24 hours-old); experiment: Checkerboard assay, biofilm eradication; format: cell-based; details: Candida albicans, antimycotic alone, [rHsAFP1] 0 μM, CTB assay, mean ± SEM, n ≥ 3, read-out: BEC50 CAS or AMB
Method: The Biofilm Eradicating Concentration 50 value (BEC50; the minimum concentration required to reduce the viability of the cells in a pre-grown biofilm by 50% as compared to control treatment) of rHsAFP1 was determined using the BEC50 determination assay as described by De Cremer and co-workers. Briefly, a C. albicans SC5314 overnight culture, grown in YPD, was diluted to an optical density (600 nm) of 0.1 in RPMI 1640 medium and 100 μL of this suspension was added to the wells of a round-bottomed microtitre plate (TPP, Tradingen, Switzerland). After 1 h of adhesion, the biofilms were washed with 100 μL PBS to remove non-adherent cells, followed by addition of 100 μL RPMI 1640 medium. The biofilms were allowed to grow for 24 h at 37°C. Next, an rHsAFP1 concentration series in RPMI was added to the biofilms. […] The biofilms were incubated for another 24 h at 37°C, after which they were washed and quantified with CTB as described above.
(§1) C. albicans biofilms or C. albicans planktonic cultures were grown as described above. […] Synergy was determined by calculating the Fractional Inhibitory Concentration Index (FICI), in which the actual concentration of compound A (i.e. rHsAFP1) in the checkerboard experiment was used, as indicated in Tables 1–3 and 4.
(§2) Data were analysed with GraphPad Prism (GraphPad Software, Inc., CA, USA). […]

[2] = test system: C. albicans SC5314 planktonic cultures; experiment: Checkerboard assay, planktonic cultures; format: cell-based; details: Candida albicans, antimycotic alone, [rHsAFP1] 0 μM, OD at 490 nm, mean ± SEM, n ≥ 3, read-out: MIC50 CAS or AMB
Description: To test whether rHsAFP1 is as potent as HsAFP1 purified from the seeds of coral bells, we analysed the antifungal activity of both peptides against F. culmorum, following the standard CLSI protocol M28-A2 [50], with minor modifications as previously described by Osborn and colleagues: an inoculum of approximately 10^4 spores/mL of F. culmorum was suspended in half strength PDB and added to a two-fold dilution series of rHsAFP1 in water. Seed-derived HsAFP1 was purified according to the protocol as previously described by Osborn and colleagues. […] The antifungal activity of rHsAFP1 against C. albicans was subsequently analysed according to the standard CLSI protocol M27-A3 [51] with minor modifications: an inoculum of approximately 10^6 cells/mL was suspended in RPMI-1640 medium and added to a two-fold dilution series of rHsAFP1 in water. The DMSO concentration was similar to that in the biofilm assays, i.e. 0.5% DMSO.
as §1, §2

[3] = test system: C. albicans SC5314 biofilms; experiment: Checkerboard assay, biofilm formation inhibition; format: cell-based; details: Candida albicans, CTB assay, mean ± SEM
Method: The Biofilm Inhibitory Concentration 50 value (BIC50; the minimum concentration required to reduce biofilm formation by 50% as compared to control treatment) of rHsAFP1 was determined using the following antibiofilm assay: a C. albicans SC5314 overnight culture, grown in YPD, was diluted to an optical density (600 nm) of 0.1 in RPMI 1640 medium and 100 μL of this suspension was added to the wells of a round-bottomed microtitre plate (TPP, Tradingen, Switzerland). After 1 h of adhesion at 37°C, the medium was aspirated and the biofilms were washed with 100 μL phosphate-buffered saline (PBS) to remove non-adherent cells. Fresh RPMI 1640 medium, followed by an rHsAFP1 concentration series was added to the biofilms. The DMSO concentration was similar to that in the checkerboard assays, i.e. 0.5%. Biofilms were allowed to grow for 24 h at 37°C and were subsequently washed with PBS and quantified with CellTiter-Blue (CTB; Promega, WI, USA)) by adding 100 μL of CTB diluted 1/10 in PBS to each well. After 1 h of incubation in the dark at 37°C, the fluorescence was measured with a fluorescence spectrometer (λEx/λEm: 535/590 nm). The fluorescence values of the samples were corrected by subtracting the average fluorescence value of the CTB of uninoculated wells (blank). The percentage of surviving biofilm cells was calculated relative to the control treatment (0.5% DMSO).
as §1, with “above. A combination of rHsAFP1 and antimycotic (caspofungin or amphotericin B), two-fold diluted across the columns and rows of a 96-well plate, respectively, was added to the planktonic culture or to the biofilms.” for “above.”
as §2

[4] = test system: C. albicans and C. glabrata biofilms; design: method as in PMID 24284780; details: combination with caspofungin; cited from earlier work
[5] = antimycotic alone, [rHsAFP1] 0 μM, n ≥ 3, read-out: BIC50 CAS or AMB

Row | IC50 [1] [nM] | MIC50 [2] [µM] | IC50 [3, 5] [nM] | IC50 ([3]; CAS alone, [HsLin06] 0 μM, n ≥ 3, read-out: BIC50 CAS) [nM] | Structure (SMILES) | fold reduction of the caspofungin BIC50 [4]
1 | 1670 ± 300 | 0.44 ± 0.06 | 1230 ± 150 | – | C[C@@H]1[C@H](O)[C@@H](C)/C=C/C=C/C=C/C=C/C=C/C=C/C=C/[C@H](O[C@@H]2O[C@H](C)[C@@H](O)[C@H](N)[C@@H]2O)C[C@@H]2O[C@](O)(C[C@@H](O)C[C@@H](O)[C@H](O)CC[C@@H](O)C[C@@H](O)CC(=O)O[C@H]1C)C[C@H](O)[C@H]2C(=O)O [AMB alone, amphotericin B] | –
2 | 400 ± 80 | 0.02 ± 0.01 | 720 ± 50 | 900 ± 50 | CC[C@H](C)C[C@H](C)CCCCCCCCC(=O)N[C@H]1C[C@@H](O)[C@@H](NCCN)NC(=O)[C@@H]2[C@@H](O)CCN2C(=O)[C@H]([C@H](O)CCN)NC(=O)[C@H]([C@H](O)[C@@H](O)c2ccc(O)cc2)NC(=O)[C@@H]2C[C@@H](O)CN2C(=O)[C@H]([C@@H](C)O)NC1=O [CAS alone, caspofungin] | –
3 | – | – | – | – | CN(C)CCOc1ccc(/C(=C(/CCCl)c2ccccc2)c2ccccc2)cc1 [toremifene citrate] | up to 20 fold
